Consider nine molecules from patent publication US6689753B1, “β sheet breaker peptide analogs that inhibit β pleated sheet formation in amyloid β-peptide” (Axonyx, Inc., priority 1999, dated 2004).

Data set [1] deals with Aβ1-40 (Homo sapiens, UniProt P05067). The data set is described as follows: In vitro amyloid formation assay, thioflavine T fluorescence. It counts as biochemical. Particulars: Aβ incubated with peptide, ThT fluorescence, FIG. 5a.
Data set [2] in a line: In vitro assay of peptide stability in fresh human plasma. It counts as in vitro ADME. Here is the method:
One of the major drawbacks for the use of peptides as drugs is their rapid proteolytic degradation in biological fluids and tissues. In in vitro experiments, iAβ5, (Seq LPFFD- also depicted as Leu Pro Phe Phe Asp herein) degraded very quickly in vitro after incubation with fresh human plasma. […] Since it was not possible to identify any metabolic fragments as a result of the proteolytic digestion, it seems likely that the degradation is mainly done by unspecific exopeptidases. This conclusion is supported by the finding that protection of amino- and carboxy-terminus of the peptide by acetylation and amidation, respectively, (to form Ac-iAβ5-Am—also depicted as Ac-Leu Pro Phe Phe Asp-Am herein) dramatically increases the stability of the peptide in vitro.
In vitro assays of peptide stability. Peptides were prepared as a 1 μg/μl solution in water. 20 μl of the peptide solution was diluted in 80 μl of fresh human plasma. The solution was incubated at 37° C. for different time periods and the reaction was stopped by adding a complete cocktail of protease inhibitors. The bulk of the plasma proteins (none of the peptide) were precipitated in cold methanol (mix/MeOH, 4/5, v/v) for one hour at −20° C. […] The peak area corresponding to the intact peptide was measured and compared with an equivalent sample incubated without plasma.

Data set [3] has as its target Aβ1-42 amyloid deposits (Homo sapiens, UniProt P05067). Particulars: cited from earlier work.
Data set [4] has as its system Aβ. To be noted: prior art; cited from earlier work.
The subject of data set [5] is neuronal death induced by oligomeric Aβ. To be noted: cell culture, prior art; cited from earlier work.
Data set [6] in a line: Peptide stability in rat plasma after i.v. bolus injection (radio-iodinated peptide, TCA precipitation, paper chromatography). In kind it is in vivo. To be noted: 15 minutes after i.v. injection. On the procedure: d) Chirality changes. Replacement of the natural L-residue by the D-enantiomers dramatically increases resistance to proteolytic degradation. […] Indeed, approximately 90% of iAβ1 was degraded within minutes after intravenous injection. […] For detection, the peptide was radio-iodinated using standard procedures. Peptide stability was evaluated after i.v bolus injection in rats by precipitation with trichloroacetic acid. Quantitation of the intact peptide was also done by paper chromatography. […] In addition to the latter, D-residue are used after each proline amino acid, since it has been reported that a frequent endopeptidase cleavage site is after this residue by an enzyme known as prolylendopeptidase.

Data set [7] has as its target PrP (Homo sapiens, UniProt P04156). Particulars: cited from earlier work.
The nature of data set [8]: In vitro metabolism in human liver microsomes. In kind it is in vitro ADME. Particulars: one hour of incubation at 37°, read-out: peptide remained intact. (Liver microsomes are a subcellular fraction often used to study metabolism.)
A short description of data set [9]: In vitro metabolism in rat liver microsomes. Particulars: one hour of incubation at 37°, read-out: peptide remained intact. It counts as in vitro ADME.

Non-standard residues stand in square brackets, D forms with d. Residues, ends and D or L forms follow the SMILES beside them.

Sequence of Aβ1-42 amyloid deposits (P05067 672-713): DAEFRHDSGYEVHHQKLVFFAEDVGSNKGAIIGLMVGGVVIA
Sequence of Aβ1-40 (P05067 672-711): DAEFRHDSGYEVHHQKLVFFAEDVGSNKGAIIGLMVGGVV

In the case of “GYLTVAAVFRG [CP2, unrelated control peptide]”, in data set [1], the “activity in inhibiting amyloid formation (fibrillogenesis)” value is on record as “no effect on fibrillogenesis or slightly increased amyloid formation”. Same read-out and setting: the value for “Aβ18-21: short Aβ fragment (VFFA; Amyloid-beta protein 42; UniProt P05067 689-692, looked up, fragment)” was “no effect on fibrillogenesis or slightly increased amyloid formation”. Take `CC(C)C[C@H](N)C(=O)N1CCC[C@H]1C(=O)N[C@@H](Cc1ccccc1)C(=O)N[C@@H](Cc1ccccc1)C(=O)N[C@@H](CC(=O)O)C(=O)O` [iAβ5, Leu Pro Phe Phe Asp] (H-LPFFD-OH): the half-life at 0.2 μg/μl in [2] (fresh human plasma, 37° C., FIG. 4a, read-out: time in which fifty percent of the peptide disappeared in plasma) was roughly 5 min. Further, the “cerebral Aβ accumulation and deposition of fibrillar amyloid-like lesions” value in data set [3] (co-injection with Aβ1-42, rat brain, prior art) is “decreased cerebral Aβ accumulation and completely blocked the deposition of fibrillar amyloid-like lesions”. For the same molecule, the “inhibition of amyloid plaque formation” value in data set [3] (co-injection with Aβ1-42, rat) is 50%. Further, in [3] (i.c. injection in animals already containing amyloid plaques), the “dissolution of preformed deposits” value is reported as 67%. The “inhibition of amyloid formation and dissolution of preformed fibrils in vitro” value in data set [4] was “inhibit peptide conformational changes that result in amyloid formation and also dissolved preformed fibrils”. In addition, the “prevention of neuronal death” value in data set [5] is given as “capable of preventing the neuronal death”. On to “ISEVKMDAEF [CP10, unrelated control peptide]”, for which, in [1], the “activity in inhibiting amyloid formation (fibrillogenesis)” value is on record as “no effect on fibrillogenesis or slightly increased amyloid formation”. Regarding RDLPFYPVPID [iAβ1], the “inhibition of amyloid formation and dissolution of preformed fibrils in vitro” value in data set [4] is “inhibit peptide conformational changes that result in amyloid formation and also dissolved preformed fibrils”. Take “VHVSEEGTEPA [CP1, unrelated control peptide]”: in data set [1], the “activity in inhibiting amyloid formation (fibrillogenesis)” value is reported as “no effect on fibrillogenesis or slightly increased amyloid formation”. Take `CC[C@@H](C)[C@@H](NC(=O)[C@H]1CCCN1C(=O)[C@H](NC(=O)[C@H]1CCCN1C(=O)[C@@H](Cc1ccc(O)cc1)NC(=O)[C@@H](Cc1ccccc1)NC(=O)[C@H]1CCCN1C(=O)[C@@H](CC(C)C)NC(=O)[C@@H](CC(=O)O)NC(=O)[C@H](N)CCCNC(=N)N)C(C)C)C(=O)N[C@H](CC(=O)O)C(=O)O` (H-[dR][dD][dL][dP][dF][dY][dP][dV][dP][dI][dD]-OH; N-terminus and C-terminus assumed): the “degradation in the plasma after injection” value in data set [6] is “virtually no degradation”. As for “Asp Ala Pro Ala Ala Pro Ala Gly Pro ala Val Pro Val [iPrP13]”, the “inhibitory activity on PrP conformational change among a set of β-sheet breaker peptides” value in data set [7] was “showed the greatest activity”. In the case of `CC(=O)N[C@@H](CC(C)C)C(=O)N1CCC[C@H]1C(=O)N[C@@H](Cc1ccccc1)C(=O)N[C@@H](Cc1ccccc1)C(=O)N[C@@H](CC(=O)O)C(N)=O` [Ac-iAβ5-Am, Ac-Leu Pro Phe Phe Asp-Am] (Ac-LPFFD-NH2), the “period the peptide remained stable in human plasma” value in [2] (human plasma, FIG. 4b) is given as “more than 24 hours”. Further, the figures for the remaining at 1 h in data set [8] and in data set [9] were 81.5% and 76.3%, respectively.
